Values after ≈ are worked out from the molar mass of the structure shown.
How the values were obtained:
[1] = biological target: human soluble guanylate cyclase alpha 1 and beta 1 subunits (sGC) (Homo sapiens (Human), UniProt Q02108+Q02153); assay: sGC cellular activator assay (cGMP, HTRF), in the presence and absence of 50% human serum; type: cell-based; conditions: CHO cells stably expressing human sGC alpha 1/beta 1, preincubated with 40 microM ODQ; cGMP by HTRF; Table 2 does not state whether with or without 50% human serum
human soluble guanylate cyclase alpha 1 and beta 1 subunits (sGC), sequence (Q02108 whole entry partner): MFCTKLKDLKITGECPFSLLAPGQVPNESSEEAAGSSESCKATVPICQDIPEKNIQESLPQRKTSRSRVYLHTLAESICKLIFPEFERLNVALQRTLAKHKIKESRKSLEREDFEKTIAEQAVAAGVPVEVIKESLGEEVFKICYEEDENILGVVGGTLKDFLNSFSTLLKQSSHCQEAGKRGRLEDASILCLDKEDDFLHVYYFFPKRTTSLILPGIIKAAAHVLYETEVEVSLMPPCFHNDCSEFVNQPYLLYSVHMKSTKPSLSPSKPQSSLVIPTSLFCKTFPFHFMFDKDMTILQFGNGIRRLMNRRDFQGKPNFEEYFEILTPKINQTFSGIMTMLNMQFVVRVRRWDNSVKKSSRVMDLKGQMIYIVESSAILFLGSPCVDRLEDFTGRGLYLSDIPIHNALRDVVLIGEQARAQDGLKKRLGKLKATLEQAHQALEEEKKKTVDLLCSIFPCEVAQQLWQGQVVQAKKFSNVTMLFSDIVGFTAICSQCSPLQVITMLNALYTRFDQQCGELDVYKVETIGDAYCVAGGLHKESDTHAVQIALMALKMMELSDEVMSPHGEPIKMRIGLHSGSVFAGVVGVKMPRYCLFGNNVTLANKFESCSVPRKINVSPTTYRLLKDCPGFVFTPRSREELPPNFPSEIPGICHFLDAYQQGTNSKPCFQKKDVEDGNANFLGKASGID
human soluble guanylate cyclase alpha 1 and beta 1 subunits (sGC), sequence (Q02153 whole entry): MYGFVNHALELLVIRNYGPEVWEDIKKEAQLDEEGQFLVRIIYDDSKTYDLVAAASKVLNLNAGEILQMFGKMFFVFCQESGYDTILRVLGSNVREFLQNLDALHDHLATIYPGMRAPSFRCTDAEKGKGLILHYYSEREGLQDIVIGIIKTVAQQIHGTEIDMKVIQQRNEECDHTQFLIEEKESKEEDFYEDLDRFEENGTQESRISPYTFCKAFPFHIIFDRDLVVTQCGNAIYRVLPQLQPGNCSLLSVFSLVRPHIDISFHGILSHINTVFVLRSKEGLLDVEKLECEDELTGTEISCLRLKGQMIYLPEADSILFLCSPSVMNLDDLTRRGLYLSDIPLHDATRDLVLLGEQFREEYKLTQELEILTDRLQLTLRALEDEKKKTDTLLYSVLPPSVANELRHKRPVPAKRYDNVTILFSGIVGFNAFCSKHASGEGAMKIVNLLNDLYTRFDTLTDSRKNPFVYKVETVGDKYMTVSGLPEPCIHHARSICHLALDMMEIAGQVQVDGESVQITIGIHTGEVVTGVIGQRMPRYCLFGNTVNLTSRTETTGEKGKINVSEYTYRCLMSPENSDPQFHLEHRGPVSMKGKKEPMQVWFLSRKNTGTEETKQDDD
Method in brief: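 Heme-oxidized conditions: ODQ (40 microM, 1 h) pretreatment of CHO cells stably expressing human α1/β1 sGC, in buffer containing 0.1% BSA and IBMX.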

physchem = conditions: kinetic from dmso stock
[2] = Human liver microsome (HLM) metabolic stability assay; type: in vitro ADME; conditions: human liver microsomes
Method in brief: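 Compound at 1 uM incubated with human liver microsomes at 37° C. for 60 min after NADPH addition. Aliquots quenched in cold acetonitrile at 0, 5, 15, 30 and 60 min and analysed by LC/MS/MS. t1/2 from ln(% remaining) vs time slope; CLint, CLh and % Qh derived from it (n=1).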

[3] = pH 2.2, aqueous buffer, Solubility (pH 2.2)
[4] = pH 4.5, aqueous buffer, Solubility (pH 4.5)
[5] = pH 6.8, aqueous buffer, Solubility (pH 6.8)

| Compound | EC50 [1] | solubility at 24 h (physchem; [3]) | solubility at 24 h (physchem; [4]) | solubility at 24 h (physchem; [5]) | Metabolic stability (Qh %), % hepatic blood flow [2] |
| --- | --- | --- | --- | --- | --- |
| CO[C@@H]1CN(c2cccc(-c3cc(C)ccc3OCc3ccc4c(c3C)CCN(C3CCOCC3)C4)n2)CC[C@@H]1C(=O)O [Compound 75] | 15 nM | 120 µg/mL (≈ 205 µM) | 110 µg/mL (≈ 188 µM) | 74 µg/mL (≈ 126 µM) | <24% |
| Cc1ccc(OCc2ccc3c(c2C)CCN(C2CCOCC2)C3)c(-c2cccc(N3CC[C@@]4(C(=O)O)C[C@H]4C3)n2)c1 [Compound 18] | 2 nM | 130 µg/mL (≈ 229 µM) | 99 µg/mL (≈ 174 µM) | 38 µg/mL (≈ 66.9 µM) | 34% |
| Cc1ccc(OCc2ccc3c(c2C)CCN(C2CCOC2)CC3)c(-c2csc(N3CC[C@@]4(C(=O)O)C[C@H]4C3)n2)c1 (some centres unmarked) [Compound 133] | 18 nM | 90 µg/mL (≈ 157 µM) | 12 µg/mL (≈ 20.9 µM) | 1.6 µg/mL (≈ 2.79 µM) | 43% |
| Cc1c(COc2ccccc2-c2cccc(N3CC[C@@]4(C(=O)O)C[C@H]4C3)n2)ccc2c1CCN(C1CCC1)C2 [Compound 292] | 3 nM | 113 µg/mL (≈ 216 µM) | 43.5 µg/mL (≈ 83.1 µM) | 6.2 µg/mL (≈ 11.8 µM) | 47% |
| CO[C@H]1CN(c2nc(-c3cccc(C)c3OCc3ccc4c(c3)[C@@H](C)CN(C3CCOCC3)CC4)cs2)CC[C@H]1C(=O)O [Compound 312] | 3 nM | 155 µg/mL (≈ 256 µM) | 143 µg/mL (≈ 236 µM) | 146 µg/mL (≈ 242 µM) | <24% |
| COc1cc(COc2c(C)cccc2-c2csc(N3CC[C@H](C(=O)O)[C@H](OC)C3)n2)cc2c1CN(C1CCOCC1)CC2 [Compound 177] | 47 nM | 140 µg/mL (≈ 230 µM) | 100 µg/mL (≈ 165 µM) | 96 µg/mL (≈ 158 µM) | <24% |
| CO[C@@H]1CN(c2cccc(-c3cccc(C)c3OCc3ccc4c(c3C)CCN([C@@H]3CCOC3)CC4)n2)CC[C@@H]1C(=O)O [Compound 302] | 3 nM | 148 µg/mL (≈ 252 µM) | 112 µg/mL (≈ 190 µM) | 85.5 µg/mL (≈ 146 µM) | <24% |
| Cc1ccc(OCc2ccc3c(c2)CCN(C2CCOCC2)C3)c(-c2csc(N3C[C@@H]4C[C@]4(C(=O)O)[C@H]3C)n2)c1 [Compound 153] | 14 nM | 120 µg/mL (≈ 214 µM) | 72 µg/mL (≈ 129 µM) | 47 µg/mL (≈ 84 µM) | <24% |
| Cc1ccc(OCc2ccc3c(c2)CCN(C2CCOCC2)CC3)c(-c2csc(N3C[C@@H]4C[C@]4(C(=O)O)C3)n2)c1 [Compound 147] | 49 nM | > 140 µg/mL | < 0.1 µg/mL | < 0.1 µg/mL | <24% |
| CCO[C@@H]1CN(c2cccc(-c3cccc(Cl)c3OCc3cc4c(c(OC)c3)CN(C3CCOCC3)CC4)n2)CC[C@@H]1C(=O)O [Compound 260] | 56 nM | 148 µg/mL (≈ 233 µM) | 83.9 µg/mL (≈ 132 µM) | 58.3 µg/mL (≈ 91.6 µM) | 40% |
| Cc1c(COc2ccccc2-c2csc(N3CC[C@@]4(C(=O)O)C[C@H]4C3)n2)ccc2c1CCN(C1CCOCC1)C2 [Compound 83] | 4 nM | 120 µg/mL (≈ 214 µM) | 47 µg/mL (≈ 84 µM) | 13 µg/mL (≈ 23.2 µM) | <24% |
| CCO[C@H]1CN(c2nc(-c3cccc(C)c3OCc3cc4c(c(OC)c3)CN(C3CCOCC3)CC4)cs2)CC[C@H]1C(=O)O [Compound 232] | 330 nM | 142 µg/mL (≈ 229 µM) | 131 µg/mL (≈ 211 µM) | 131 µg/mL (≈ 211 µM) | <24% |
| CCO[C@H]1CN(c2nccc(-c3cccc(C)c3OCc3cc4c(c(OC)c3)CN(C3CCOCC3)CC4)n2)CC[C@H]1C(=O)O [Compound 246] | 15 nM | 117 µg/mL (≈ 190 µM) | 114 µg/mL (≈ 184 µM) | 85.4 µg/mL (≈ 138 µM) | <24% |
| CO[C@@H]1CN(c2nc(-c3cccc(C)c3OCc3ccc4c(c3C)CCN(C3CCOCC3)C4)cs2)CC[C@@H]1C(=O)O [Compound 173] | 21 nM | 120 µg/mL (≈ 203 µM) | 71 µg/mL (≈ 120 µM) | 75 µg/mL (≈ 127 µM) | <24% |
| CO[C@H]1CN(c2nc(-c3cccc(Cl)c3OCc3ccc4c(c3)[C@H](C)CN(C3CCOCC3)CC4)cs2)CC[C@H]1C(=O)O [Compound 320] | 4 nM | 115 µg/mL (≈ 184 µM) | 60.6 µg/mL (≈ 96.8 µM) | 46.4 µg/mL (≈ 74.1 µM) | 26% |

Continued, values first:

| EC50 [1] | solubility at 24 h (physchem; [3]) | solubility at 24 h (physchem; [4]) | solubility at 24 h (physchem; [5]) | Metabolic stability (Qh %), % hepatic blood flow [2] | Compound |
| --- | --- | --- | --- | --- | --- |
| 739 nM | 151 µg/mL (≈ 258 µM) | 123 µg/mL (≈ 211 µM) | 73.7 µg/mL (≈ 126 µM) | <24% | COC[C@H]1N(c2cccc(-c3cccc(C)c3OCc3ccc4c(n3)CCN(C3CCOCC3)C4)n2)C[C@@H]2C[C@@]21C(=O)O [Compound 318] |
| 359 nM | 146 µg/mL (≈ 248 µM) | 111 µg/mL (≈ 188 µM) | 97.6 µg/mL (≈ 166 µM) | <24% | COCc1cc(COc2c(C)cccc2-c2cccc(N3CC[C@H](C(=O)O)[C@H](OC)C3)n2)cc2c1CN(C1COC1)CC2 [Compound 285] |
| 7 nM | 110 µg/mL (≈ 191 µM) | 62 µg/mL (≈ 108 µM) | 76 µg/mL (≈ 132 µM) | <24% | COC[C@H]1N(c2nc(-c3cccc(C)c3OCc3cc(C)c4c(c3)CCN(C3COC3)C4)cs2)C[C@@H]2C[C@@]21C(=O)O [Compound 161] |
| 2 nM | 128 µg/mL (≈ 224 µM) | 84.7 µg/mL (≈ 148 µM) | 62.3 µg/mL (≈ 109 µM) | <24% | CO[C@@H]1CN(c2cccc(-c3cccc(C)c3OCc3cc(C)c4c(c3)CCN(C3COC3)CC4)n2)CC[C@@H]1C(=O)O [Compound 291] |
| 2 nM | 110 µg/mL (≈ 204 µM) | 97 µg/mL (≈ 180 µM) | 67 µg/mL (≈ 124 µM) | <24% | Cc1cccc(-c2cccc(N3C[C@@H]4C[C@]4(C(=O)O)C3)n2)c1OCc1ccc2c(c1C)CCN(C1COC1)CC2 [Compound 34] |
| 4 nM | 140 µg/mL (≈ 266 µM) | 120 µg/mL (≈ 228 µM) | 65 µg/mL (≈ 124 µM) | <24% | Cc1c(COc2ccccc2-c2cccc(N3CC[C@@]4(C(=O)O)C[C@H]4C3)n2)ccc2c1CCN(C1COC1)C2 [Compound 4] |
| 58 nM | 130 µg/mL (≈ 223 µM) | 110 µg/mL (≈ 188 µM) | 86 µg/mL (≈ 147 µM) | <24% | COC[C@H]1N(c2cccc(-c3cccc(C)c3OCc3ccc4c(c3)CCN(C3CCOCC3)C4)n2)C[C@@H]2C[C@@]21C(=O)O [Compound 44] |
| 5 nM | 136 µg/mL (≈ 222 µM) | 135 µg/mL (≈ 220 µM) | 129 µg/mL (≈ 211 µM) | 25% | COC[C@H]1N(c2cccc(-c3cccc(C)c3OCc3ccc4c(c3)[C@@H](C)CN(C3CCOCC3)CC4)n2)C[C@@H]2C[C@@]21C(=O)O [Compound 225] |
| 21 nM | 120 µg/mL (≈ 196 µM) | 99 µg/mL (≈ 161 µM) | 78 µg/mL (≈ 127 µM) | <24% | COC[C@H]1N(c2cccc(-c3cccc(C)c3OCc3cc4c(c(OC)c3)CN(C3CCOCC3)CC4)n2)C[C@@H]2C[C@@]21C(=O)O [Compound 57] |
| 18 nM | 110 µg/mL (≈ 205 µM) | 76 µg/mL (≈ 142 µM) | 79 µg/mL (≈ 147 µM) | <24% | Cc1cccc(-c2cccc(N3C[C@@H]4C[C@]4(C(=O)O)C3)n2)c1OCc1cc(C#N)c2c(c1)CCN(C1COC1)C2 [Compound 29] |
| 6 nM | 155 µg/mL (≈ 249 µM) | 90.7 µg/mL (≈ 146 µM) | 66.6 µg/mL (≈ 107 µM) | 36% | COc1cc(COc2c(Cl)cccc2-c2cccc(N3CC[C@@H](C(=O)O)[C@@H](OC)C3)n2)cc2c1CN(C1CCOCC1)CC2 [Compound 251] |
| 4 nM | 114 µg/mL (≈ 198 µM) | 72 µg/mL (≈ 125 µM) | 65.5 µg/mL (≈ 114 µM) | <24% | CO[C@H]1CN(c2cccc(-c3cccc(C)c3OCc3cc(F)c4c(c3)CCN(C3COC3)CC4)n2)CC[C@H]1C(=O)O [Compound 274] |
| 23 nM | 132 µg/mL (≈ 227 µM) | 130 µg/mL (≈ 222 µM) | 119 µg/mL (≈ 203 µM) | <24% | COC[C@H]1N(c2cccc(-c3cccc(C)c3OCc3cc(C)c4c(c3)CN(C3CCOCC3)C4)n2)C[C@@H]2C[C@@]21C(=O)O [Compound 222] |
| 63 nM | 140 µg/mL (≈ 252 µM) | 120 µg/mL (≈ 216 µM) | 97 µg/mL (≈ 175 µM) | <24% | COC[C@H]1N(c2cccc(-c3cccc(C)c3OCc3ccc4c(c3)CCN(C3COC3)C4)n2)C[C@@H]2C[C@@]21C(=O)O [Compound 43] |
| 16 nM | 100 µg/mL (≈ 176 µM) | 84 µg/mL (≈ 148 µM) | 45 µg/mL (≈ 79.3 µM) | <24% | Cc1ccc(OCc2ccc3c(c2C)CCN(C2CCOCC2)CC3)c(-c2cccc(N3C[C@@H]4C[C@]4(C(=O)O)C3)n2)c1 [Compound 41] |
| 231 nM | 129 µg/mL (≈ 215 µM) | 103 µg/mL (≈ 171 µM) | 83.5 µg/mL (≈ 139 µM) | <24% | COCc1cc(COc2c(C)cccc2-c2cccc(N3CC[C@H](C(=O)O)[C@H](OC)C3)n2)cc2c1CN(C1CCOC1)CC2 (some centres unmarked) [Compound 284] |
